From US9695155B2, “Herbicidal substituted pyrimidinyloxy benzene compounds” (E. I. DU PONT DE NEMOURS AND COMPANY, priority 2013, dated 2017)

How the values were obtained:
sandbur = assay: Test E postemergence; format: in vivo, Cenchrus echinatus; details: Cenchrus echinatus, post-emergence, read-out: Plant response rating, Sandbur
Summary of the method: (§1)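 Response was scored visually on a 0-100 scale (100 = complete control) versus controls after 14 to 21 days in the greenhouse. Test chemicals, formulated with surfactant in a non-phytotoxic solvent mixture, had been applied preemergence to seeds in silt loam soil or postemergence to 1- to 4-leaf plants in potting medium.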

hairy beggarticks = assay: Test E postemergence; format: in vivo, Bidens pilosa; details: Bidens pilosa, post-emergence, read-out: Plant response rating, Beggarticks
Summary of the method: as §1

chamomile = assay: Test D postemergence; format: in vivo, Matricaria inodora; details: Tripleurospermum inodorum, post-emergence, scale 0 to 100 (0 no effect, 100 complete control), read-out: Plant response rating, Chamomile
Summary of the method: (§2)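 After treatment, visual injury versus untreated plants, 0–100 scale, assessed at 7 to 21 days. Applications were made preemergence to silt loam-sown seed and postemergence to seedlings 2–18 cm high in potting medium.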

wild oat = assay: Test D postemergence; format: in vivo, Avena fatua; details: Avena fatua, post-emergence, scale 0 to 100 (0 no effect, 100 complete control), read-out: Plant response rating, Oat, Wild
Summary of the method: as §2

green foxtail = assay: Test D preemergence; format: in vivo, Setaria viridis; details: Setaria viridis, pre-emergence, scale 0-100, read-out: Plant response rating, Foxtail, Green
Summary of the method: as §2

spring barley = assay: Test D preemergence; format: in vivo, Hordeum vulgare; details: Hordeum vulgare, pre-emergence, scale 0-100, read-out: Plant response rating, Barley, Spring
Summary of the method: as §2

winter barley = assay: Test D preemergence; format: in vivo, Hordeum vulgare; details: Hordeum vulgare, pre-emergence, scale 0-100, read-out: Plant response rating, Barley, Winter
Summary of the method: as §2

wild radish = assay: Test D postemergence; format: in vivo, Raphanus raphanistrum; details: Raphanus raphanistrum, post-emergence, scale 0 to 100 (0 no effect, 100 complete control), read-out: Plant response rating, Radish, Wild
Summary of the method: as §2

canarygrass = assay: Test D preemergence; format: in vivo, Phalaris minor; details: Phalaris minor, pre-emergence, scale 0-100, read-out: Plant response rating, Canarygrass
Summary of the method: as §2

[1] = test system: waterhemp_RES2 (ALS & HPPD resistant common waterhemp); assay: Test E postemergence; format: in vivo, Amaranthus rudis; details: Amaranthus tuberculatus, post-emergence, read-out: Plant response rating, Waterhemp_RES2
Summary of the method: as §1

waterhemp = assay: Test E postemergence; format: in vivo, Amaranthus rudis; details: Amaranthus tuberculatus, post-emergence, Postemergence, scale 0 to 100, read-out: Plant response rating, Waterhemp
Summary of the method: as §1

galium = assay: Test D preemergence; format: in vivo, Galium aparine; details: Galium, pre-emergence, scale 0-100, read-out: Plant response rating, Galium
Summary of the method: as §2

bromegrass, downy = assay: Test D preemergence; format: in vivo, Bromus tectorum; details: Bromus tectorum, pre-emergence, scale 0-100, read-out: Plant response rating, Bromegrass, Downy
Summary of the method: as §2

[2] = Postemergence, 31 g ai/ha, scale 0 to 100
[3] = Postemergence, 62 g ai/ha, scale 0 to 100
[4] = Postemergence, 125 g ai/ha, scale 0 to 100
[5] = Postemergence, 250 g ai/ha, scale 0 to 100
[6] = postemergence, 16 g ai/ha, scale 0 to 100, 0 no effect, 100 complete control

N#Cc1cccc(Oc2ncc(Br)cn2)c1-n1cc(C(F)(F)F)cn1 [Compound 59, 3-[(5-bromo-2-pyrimidinyl)oxy]-2-[4-(trifluoromethyl)-1H-pyrazol-1-yl]benzonitrile]
pest or weed control at 31 g/ha (sandbur; [2]): 0% | pest or weed control at 62 g/ha (sandbur; [3]): 0% | pest or weed control at 125 g/ha (sandbur; [4]): 10% | pest or weed control at 250 g/ha (sandbur; [5]): 20% | pest or weed control at 16 g/ha (sandbur; [6]): 0% | pest or weed control at 31 g/ha (hairy beggarticks; [2]): 60% | pest or weed control at 62 g/ha (hairy beggarticks; [3]): 60% | pest or weed control at 125 g/ha (hairy beggarticks; [4]): 70% | pest or weed control at 250 g/ha (hairy beggarticks; [5]): 95% | pest or weed control at 16 g/ha (hairy beggarticks; [6]): 50% | pest or weed control at 31 g/ha (chamomile; 31 g ai/ha): 5% | pest or weed control at 62 g/ha (chamomile; 62 g ai/ha): 10% | pest or weed control at 125 g/ha (chamomile; 125 g ai/ha): 10% | pest or weed control at 250 g/ha (chamomile; 250 g ai/ha): 15% | pest or weed control at 31 g/ha (wild oat; 31 g ai/ha): 25% | pest or weed control at 62 g/ha (wild oat; 62 g ai/ha): 30% | pest or weed control at 125 g/ha (wild oat; 125 g ai/ha): 35% | pest or weed control at 250 g/ha (wild oat; 250 g ai/ha): 50% | pest or weed control at 31 g/ha (green foxtail; 31 g ai/ha): 35% | pest or weed control at 62 g/ha (green foxtail; 62 g ai/ha): 100% | pest or weed control at 125 g/ha (green foxtail; 125 g ai/ha): 100% | pest or weed control at 250 g/ha (green foxtail; 250 g ai/ha): 100% | plant injury at 31 g/ha (spring barley; 31 g ai/ha): 5% | plant injury at 62 g/ha (spring barley; 62 g ai/ha): 5% | plant injury at 125 g/ha (spring barley; 125 g ai/ha): 50% | plant injury at 250 g/ha (spring barley; 250 g ai/ha): 75% | plant injury at 31 g/ha (winter barley; 31 g ai/ha): 0% | plant injury at 62 g/ha (winter barley; 62 g ai/ha): 10% | plant injury at 125 g/ha (winter barley; 125 g ai/ha): 40% | plant injury at 250 g/ha (winter barley; 250 g ai/ha): 80% | pest or weed control at 31 g/ha (wild radish; 31 g ai/ha): 35% | pest or weed control at 62 g/ha (wild radish; 62 g ai/ha): 70% | pest or weed control at 125 g/ha (wild radish; 125 g ai/ha): 80% | pest or weed control at 250 g/ha (wild radish; 250 g ai/ha): 85% | pest or weed control at 31 g/ha (canarygrass; 31 g ai/ha): 5% | pest or weed control at 62 g/ha (canarygrass; 62 g ai/ha): 15% | pest or weed control at 125 g/ha (canarygrass; 125 g ai/ha): 65% | pest or weed control at 250 g/ha (canarygrass; 250 g ai/ha): 100% | pest or weed control at 31 g/ha [1, 2]: 85% | pest or weed control at 62 g/ha [1, 3]: 90% | pest or weed control at 125 g/ha [1, 4]: 95% | pest or weed control at 250 g/ha [1, 5]: 100% | pest or weed control at 16 g/ha [1, 6]: 75% | pest or weed control at 31 g/ha (waterhemp; 31 g ai/ha): 65% | pest or weed control at 62 g/ha (waterhemp; 62 g ai/ha): 90% | pest or weed control at 125 g/ha (waterhemp; 125 g ai/ha): 90% | pest or weed control at 250 g/ha (waterhemp; 250 g ai/ha): 100% | pest or weed control at 31 g/ha (galium; 31 g ai/ha): 0% | pest or weed control at 62 g/ha (galium; 62 g ai/ha): 95% | pest or weed control at 125 g/ha (galium; 125 g ai/ha): 60% | pest or weed control at 250 g/ha (galium; 250 g ai/ha): 100% | pest or weed control at 31 g/ha (bromegrass, downy; 31 g ai/ha): 0% | pest or weed control at 62 g/ha (bromegrass, downy; 62 g ai/ha): 0% | pest or weed control at 125 g/ha (bromegrass, downy; 125 g ai/ha): 10% | pest or weed control at 250 g/ha (bromegrass, downy; 250 g ai/ha): 40%
